Experimental findings from ChEMBL document CHEMBL3244130, “A manual method for applying the Hansch approach to drug design” (J Med Chem, 1977) are described below.

The first experiment concerns Escherichia coli. The experiment can be described thus: Antibacterial activity against Escherichia coli.
Settings: not given
Format: functional.
Consider `Nc1ccc(S(=O)(=O)NC(=O)c2cccc(C(F)(F)F)c2)cc1`, for which the “log(1/MIC)” value is given as 4.65. Regarding `Nc1ccc(S(=O)(=O)NC(=O)c2ccc(Cl)cc2)cc1`, the “log(1/MIC)” value was found to be 5.1. On to `Nc1ccc(S(=O)(=O)NC(=O)c2ccccc2)cc1` [SULFABENZAMIDE], for which the “log(1/MIC)” value was 5.25.

With `CCc1ccc(C(=O)NS(=O)(=O)c2ccc(N)cc2)cc1`, the “log(1/MIC)” value worked out at 5.62.

For the molecule `CC(C)c1ccc(C(=O)NS(=O)(=O)c2ccc(N)cc2)cc1`, the “log(1/MIC)” value is listed as 5.4. Still for that read-out and setting: to `CCCc1ccc(C(=O)NS(=O)(=O)c2ccc(N)cc2)cc1` belongs 5.18; to `COc1ccc(C(=O)NS(=O)(=O)c2ccc(N)cc2)cc1`, 5.4. `COc1ccc(C(=O)NS(=O)(=O)c2ccc(N)cc2)cc1C`: the “log(1/MIC)” value amounted to 5.25. As to `Cc1ccc(C(=O)NS(=O)(=O)c2ccc(N)cc2)cc1`, the “log(1/MIC)” value came out at 5.4. For the molecule `N#Cc1ccc(C(=O)NS(=O)(=O)c2ccc(N)cc2)cc1`, the “log(1/MIC)” value is given as 4.05. Still for that read-out and setting: to `Nc1ccc(S(=O)(=O)NC(=O)c2ccc([N+](=O)[O-])cc2)cc1` belongs 4.5. In the case of `Cc1cccc(C(=O)NS(=O)(=O)c2ccc(N)cc2)c1`, the “log(1/MIC)” value was 5.4.

The subject of a further experiment is Rattus norvegicus. Description: Antiinflammatory activity in rat pleurisy model assessed as 10X ratio of mean pleural exudate volumes at 1 mmol/kg, po relative to 1 mmol/kg aspirin.
Settings: not given
In kind it is functional.
As to `COc1ccc(-c2nnn(CCC(=O)O)n2)cc1`, the Activity_index came to 4.9.

Turning to `Nc1cccc(-c2nnn(CCC(=O)O)n2)c1`, the Activity_index was found to be 0.3.

As for `O=C(O)CCn1nnc(-c2ccc(Cl)cc2)n1`, the Activity_index is 5.9. For `O=C(O)CCn1nnc(-c2cccc(Br)c2)n1`, the Activity_index is given as 11.2.

For the molecule `O=C(O)CCn1nnc(-c2ccc(Cl)c(Cl)c2)n1`, the Activity_index came to 6.2. Turning to `Cc1cccc(-c2nnn(CCC(=O)O)n2)c1`, the Activity_index is on record as 7.9. In the case of `O=C(O)CCn1nnc(-c2cccc(Cl)c2)n1`, the Activity_index worked out at 11.2. With `O=C(O)CCn1nnc(-c2cc(Cl)cc(Cl)c2)n1`, the Activity_index was found to be 11.2. For `O=C(O)CCn1nnc(-c2cccc(C(F)(F)F)c2)n1`, the Activity_index worked out at 5.7. `Cc1ccc(-c2nnn(CCC(=O)O)n2)cc1`: the Activity_index was determined as 3.1.

On to `O=C(O)CCn1nnc(-c2ccccc2)n1`, for which the Activity_index is listed as 8.2.

System in the next experiment: not listed separately
The experiment can be described thus: Inhibition of alcohol dehydrogenase (unknown origin) assessed as dissociation constant for the complex of enzyme and DPNH. Format: protein assay. Conditions: Homo sapiens.
In the case of `CC(C)c1ccc(C(N)=O)cc1`, the log K was -1.7. The same measure, in the same setting: to `NC(=O)c1ccc(Cl)cc1` belongs -1.93; to `COc1ccc(C(N)=O)cc1`, -2.2. On to `Cc1ccc(C(N)=O)cc1`, for which the log K was -1.78. Regarding `NC(=O)c1ccccc1`, the log K was -2.72.

The species named for a further experiment is Oryctolagus cuniculus. The experiment can be described thus: Reversible inhibition of guanine deaminase in rabbit liver at pH 7.4.
Settings: not given
As for `CCOc1ccc(-n2cnc3c(O)nc(N)nc32)cc1`, the log(1/C) is 7.01. The molecule `Nc1nc(O)c2ncn(-c3ccc(OCCCc4ccccc4)cc3)c2n1` displayed a log(1/C) of 7.25.

System in the next experiment: not listed separately
The experiment can be described thus: Uncoupling activity of oxidative phosphorylation in rat liver mitochondria. Format: functional.
Settings: not given
The molecule `CC(C)c1ccc(C2C(=O)c3ccccc3C2=O)cc1` had a log(1/C50) of 4.87.

Turning to `O=C1c2ccccc2C(=O)C1c1ccccc1`, the log(1/C50) came out at 3.74.

Consider `COc1ccc(C2C(=O)c3ccccc3C2=O)cc1`, for which the log(1/C50) is 3.75. `Cc1ccc(C2C(=O)c3ccccc3C2=O)cc1` gave a log(1/C50) of 4.1. Same read-out and setting: to `CC(C)(C)c1ccc(C2C(=O)c3ccccc3C2=O)cc1` belongs 5.03. The molecule `O=C1c2ccccc2C(=O)C1c1ccc(Cl)cc1` displayed a log(1/C50) of 4.2.

System in another experiment: not listed separately
Description: Inhibition of carbonic anhydrase (unknown origin). The conditions noted are these: Homo sapiens.
Consider `NS(=O)(=O)c1ccccc1`, for which the log1/Ki worked out at 0.22.

Take `NS(=O)(=O)c1ccc(Cl)c(Cl)c1`: the log1/Ki came to 1.4. On the same count and under the same terms, to `NS(=O)(=O)c1ccc(Cl)cc1` belongs 0.72; to `Cc1ccc(S(N)(=O)=O)cc1`, 0.42. For `NS(=O)(=O)c1ccc([N+](=O)[O-])c(C(F)(F)F)c1`, the log1/Ki came to 1.85. Still for that read-out and setting: to `COc1ccc(S(N)(=O)=O)cc1` belongs 0.35.

The species entered for the next experiment is Rattus norvegicus. Description: Hypoglycemic activity in rat assessed as change in blood glucose level after 4 hrs. In kind it is functional. Also on record: concentration or dose not given beside the values.
Settings: not given
On to `Cc1ccc(C(=O)C=P(c2ccccc2)(c2ccccc2)c2ccccc2)cc1`, for which the Activity is listed as -2%.

On to `COc1cccc(C(=O)C=P(c2ccccc2)(c2ccccc2)c2ccccc2)c1`, for which the Activity is reported as -42%. Take `COc1ccc(C(=O)C=P(c2ccccc2)(c2ccccc2)c2ccccc2)cc1`: the Activity is on record as -4%.

On to `O=C(C=P(c1ccccc1)(c1ccccc1)c1ccccc1)c1cccc(C(F)(F)F)c1`, for which the Activity was -22%.

Take `Cc1cccc(C(=O)C=P(c2ccccc2)(c2ccccc2)c2ccccc2)c1`: the Activity was -30%. Take `O=C(C=P(c1ccccc1)(c1ccccc1)c1ccccc1)c1ccc(Cl)c(Cl)c1`: the Activity amounted to 2%.

`O=C(C=P(c1ccccc1)(c1ccccc1)c1ccccc1)c1ccc(Cl)cc1`: the Activity is on record as -21%. With `O=C(C=P(c1ccccc1)(c1ccccc1)c1ccccc1)c1cccc(Cl)c1`, the Activity is recorded as -42%.

`O=C(C=P(c1ccccc1)(c1ccccc1)c1ccccc1)c1ccccc1`: the Activity was -24%.

A further experiment relates to Plasma. The experiment can be described thus: Fibrinolytic activity in human plasma assessed as dissolution of standard clot measured with in 24 hrs. Format: functional.
Settings: not given
With `Cc1ccc(C#C[C@H]2C[C@@H]2C(=O)O)cc1`, the “log(1/C)” value is on record as 1.82. On the same count and under the same terms, to `O=C(O)[C@H]1C[C@@H]1C#Cc1ccc(Cl)cc1` belongs 1.92; to `COc1ccc(C#C[C@H]2C[C@@H]2C(=O)O)cc1`, 1.7; to `O=C(O)[C@H]1C[C@@H]1C#Cc1ccccc1`, 1.7.
